Values quoted from earlier work as cited in patent publication US6423697B1, “Intraoral topical anti-inflammatory treatment for relief of migraine, tension-type headache, post-traumatic headache, facial pain, and cervical-muscle spasm” (priority 1999, dated 2002).

What was measured:
[1] = oral medication

2-(3benzoxyphenyl)-propionic acid [Ketoprofen]
time to peak plasma levels (oral administration): 0.5 to 2 h

CC(=O)Oc1ccccc1C(=O)O [Aspirin, salicylic acetate]
effectiveness for headache [1]: mildly effective | plasma half-life (in vivo): 4.7 to 9 h | time peak plasma levels are maintained (oral administration): 4 to 6 h | time to peak plasma levels (oral administration): 1 to 2 h

CC(C)Cc1ccc(C(C)C(=O)O)cc1 (centres unmarked) [Ibuprofen, 2-(p-Isobutylphenyl) propionic acid]
effectiveness for headache [1]: mildly effective | time to peak plasma levels (oral administration): 1 to 2 h

COc1ccc2cc([C@H](C)C(=O)O)ccc2c1 [Naproxen, 6-methoxy methyl-2-naphtalene acetic acid]
effectiveness for headache [1]: mildly effective
